Results on two molecules are retold here after US20220119868A1, “PROFILING RNA-SMALL MOLECULE BINDING SITES WITH OLIGONUCLEOTIDES” (priority 2018, published 2022).

Assay [1] relates to HCV replication, SGR-Neo-RLuc-JFH1-2A replicon cells established in Huh-7.5. Briefly: HCV replication in subgenomic replicon cells (Renilla luciferase). To be noted: for IC50: Hepatitis C virus, Huh7.5, read-out: IC50, inhibition of HCV replication. It is filed as cell-based, Hepatitis C virus. From the text:
(§1) The compounds bind their cognate loops in the 3′ UTR with mid-nanomolar to low micromolar affinities (Table 1). It was next determined if the identified compounds could inhibit HCV RNA replication in HCV subgenomic replicon cells, in particular SGR-Neo-RLuc-JFH1-2A replicon cells established in Huh-7.5 (human hepatoma cells). In this system, an autonomously replicating viral RNA replicon is used to monitor efficiently RNA replication of the virus in the absence of spread of viral RNA to adjacent cells. This is achieved by replacing the structural proteins required to assembly progeny virions with a drug selectable marker (Neo) and a Renilla luciferase (RLuc) reporter gene. Once this replicon has been delivered to human hepatoma cells and selection with G418 (conferred by Neo selectable marker) has occurred, the expression and Renilla luciferase activity is directly correlated with the level of HCV replication^57.
They were therefore assayed for their ability to inhibit HCV replication using this replicon system, with DMSO vehicle and 2′-C-methyladenosine^17 triphosphate serving as negative and positive controls, respectively.
(§2) Effect of compounds on HCV replication. […] Cytotoxicity assays. […] Oligonucleotide profiling of target engagement in vitro. […] Primers can be found in Table 4. […] Inhibition of kinases. […] . Figure S7C).
For orientation: Replicon systems follow genome replication, usually without infectious particles.

Assay [2] deals with RNA motif 5′AAC3′/3′U_G5′ (from RNA library C). Briefly: In solution, fluorescence-based binding affinity assay. On the procedure: (§3) Affinity of Selected RNA Motif-Small Molecule Interactions. The affinity of exemplar compounds that have inherent fluorescence was measured. […] . Binding affinities were confirmed using a label-free method, biolayer interferometry.
(§4) where n1 is the size of Population 1 (number of sequencing reads for a given RNA from RNA-seq analysis of the selected library), n2 is the size of Population 2 (number of sequencing reads for the same RNA from RNA-seq analysis of the starting library), p1 is the observed proportion of Population 1 (the number of reads for a given RNA from selected library/total number of reads), and p2 is the observed proportion for Population 2 (the number of reads for the same RNA in the starting library/total number of reads). Generation of Logos and DiffLogos: Zobs corresponding to the highest (enriched) 0.5% and lowest (discriminated against) 0.5% scores were analyzed to generate consensus sequences, or Logos. The resulting list of sequences were converted to position weight matrix (PWM) lists for each compound. “Enriched” and “discriminated” sequences were kept separate using JMP®, Version <13.2.1>. SAS Institute Inc., Cary, N.C., 1989-2007. The R package Difflogo,^16 which is part of Bioconductor, was utilized to create the sequence logos from PWM lists for each compound and visually compare the differences between them. Binding Affinity Measurements. Dissociation constants were determined using an in solution, fluorescence-based assay. […] Serial dilutions (1:2) of the small molecule were then completed in 1× Assay Buffer supplemented with 1 mM MgCl2. The solutions were incubated for 30 min at room temperature, transferred to a 96-well plate, and fluorescence intensity measured on a BioTek-FLx800 plate reader. The change in fluorescence intensity as a function of small molecule concentration was fit to a one site binding model per equation 3: […]
as §2

Assay [3] concerns the target RNA motif 5′GAG3′/3′C_C5′ (from RNA library C). The assay is described as above. The method, then:
as §3, §4, §2

The target of assay [4] is RNA motif 5′UGU3′/3′G_A5′ (from RNA library C). The description is as above. On the procedure:
as §3, §4, §2

In assay [5] the target is RNA motif 5′UCCUU3′/3′AUUA5′ (non-binder). The description is as above. The method, then:
as §3, §4, §2

Assay [6] concerns the target RNA motif 5′UCCAU3′/3′AUCA (non-binder). The assay is described as above. On the procedure:
as §3, §4, §2

The target in the next assay is CAMK4 (Homo sapiens, UniProt Q16566). Briefly: In vitro inhibition of a panel of kinases. It is filed as biochemical. To be noted: 20 μM.
Description: as §2

For assay [7], the target named is HCV RNA motif 5′GUG3′/3′C_C5′ (SL I and SL III). Briefly: In solution, fluorescence-based binding affinity assay, HCV RNA motifs. Also noted: species or system Hepatitis C virus.
Description: as §1, §4, §2

Assay [8] addresses HCV RNA motif 5′UAG3′/3′A_C5′ (SL I). The assay is described as above. The arrangement: species or system Hepatitis C virus.
Description: as §1, §4, §2

In assay [9] the target is HCV RNA motif 5′CUG3′/3′G_C5′ (SL II). The description is as above. Also noted: species or system Hepatitis C virus.
Description: as §1, §4, §2

For assay [10], the target named is RNA motif 5′GAU3′/3′C_A5′ (from RNA library C). Briefly: In solution, fluorescence-based binding affinity assay. The method, then:
as §3, §4, §2

The target in assay [11] is RNA motif 5′GCU3′/3′C_A5′ (from RNA library C). Described as above. On the procedure: as §3, §4, §2
The target in assay [12] is RNA motif 5′UCUAU3′/3′ACCA5′ (from RNA library C). The assay is described as above. The method, then: as §3, §4, §2

Sequence of CAMK4 (Q16566 whole entry): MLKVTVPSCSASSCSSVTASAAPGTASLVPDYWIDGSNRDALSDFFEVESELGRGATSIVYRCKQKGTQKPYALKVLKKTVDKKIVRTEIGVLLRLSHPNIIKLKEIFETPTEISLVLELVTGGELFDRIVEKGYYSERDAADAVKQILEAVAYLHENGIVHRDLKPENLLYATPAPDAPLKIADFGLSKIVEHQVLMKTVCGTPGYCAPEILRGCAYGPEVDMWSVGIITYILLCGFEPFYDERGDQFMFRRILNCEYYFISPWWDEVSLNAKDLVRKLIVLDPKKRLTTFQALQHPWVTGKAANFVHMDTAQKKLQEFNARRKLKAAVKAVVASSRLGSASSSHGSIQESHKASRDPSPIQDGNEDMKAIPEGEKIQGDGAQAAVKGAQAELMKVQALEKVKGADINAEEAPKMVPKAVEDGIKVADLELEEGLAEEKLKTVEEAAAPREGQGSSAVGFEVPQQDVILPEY

The term IC50 denotes the midpoint of a concentration-inhibition curve. The term Kd denotes the equilibrium constant for the complex coming apart. For the molecule `O=C(Nc1cccc(NC(=O)Nc2cc(C(=O)Nc3ccc(C4=NCCN4)cc3)ccc2C(=O)Nc2ccc(C3=NCCN3)cc2)c1)Nc1cc(C(=O)Nc2ccc(C3=NCCN3)cc2)ccc1C(=O)Nc1ccc(C2=NCCN2)cc1` [Compound 7], the IC50 in assay [1] was determined as 17000 ± 500 nM. For the same molecule, the Kd in [2] is 420 ± 41 nM; in assay [3] it was 410 ± 26 nM; in assay [4] it was 630 ± 36 nM; in assay [5] it was 2080 ± 300 nM; in assay [6], 7200 ± 418 nM; in assay [7], 470 ± 32 nM. For the same molecule, the Kd in assay [8] stood at 460 ± 70 nM; in assay [9] it was 820 ± 82 nM. Further, the “inhibition of CAMK4 in vitro” value against CAMK4 is on record as “most significantly inhibited”.

For `O=C(Nc1ccc(C2=NCCN2)cc1)c1cc(C(=O)Nc2ccc(C3=NCCN3)cc2)cc(C(=O)Nc2ccc(C3=NCCN3)cc2)c1` [Compound 8], the half-inhibitory concentration (IC50) in [1] amounted to 14000 ± 1000 nM. Moreover, the “effect on viral replication together with ASO” value is “less robust” in assay [1] (with ASO Control binding 750 nucleotides downstream) and “synergistic effect” in [1] (with ASO complementary to SL I, luciferase). For the same molecule, the dissociation constant Kd in assay [10] worked out at 600 ± 61 nM; in [11], 450 ± 47 nM; in assay [12] it was 5580 ± 440 nM; in [7] it was 1400 ± 160 nM; in assay [8], 849 ± 150 nM; in assay [9], 1400 ± 211 nM. Also, the “inhibition of CAMK4 in vitro” value against CAMK4 was “most significantly inhibited”.
